Experimental findings from article PMC5443537, “The human asparaginase enzyme (ASPG) inhibits growth in leukemic cells” (PLoS ONE, 2017) are described below.

Series [1] has as its target T1, GST-ASPG (human ASPG, 60 kDa Lysophospholipase) (Homo sapiens, UniProt Q86U10).
T1 construct: full-length cDNA in pGEX-4T3, N-terminal GST tag kept, E. coli BL21, glutathione Sepharose
T1 sequence (Q86U10 1-573): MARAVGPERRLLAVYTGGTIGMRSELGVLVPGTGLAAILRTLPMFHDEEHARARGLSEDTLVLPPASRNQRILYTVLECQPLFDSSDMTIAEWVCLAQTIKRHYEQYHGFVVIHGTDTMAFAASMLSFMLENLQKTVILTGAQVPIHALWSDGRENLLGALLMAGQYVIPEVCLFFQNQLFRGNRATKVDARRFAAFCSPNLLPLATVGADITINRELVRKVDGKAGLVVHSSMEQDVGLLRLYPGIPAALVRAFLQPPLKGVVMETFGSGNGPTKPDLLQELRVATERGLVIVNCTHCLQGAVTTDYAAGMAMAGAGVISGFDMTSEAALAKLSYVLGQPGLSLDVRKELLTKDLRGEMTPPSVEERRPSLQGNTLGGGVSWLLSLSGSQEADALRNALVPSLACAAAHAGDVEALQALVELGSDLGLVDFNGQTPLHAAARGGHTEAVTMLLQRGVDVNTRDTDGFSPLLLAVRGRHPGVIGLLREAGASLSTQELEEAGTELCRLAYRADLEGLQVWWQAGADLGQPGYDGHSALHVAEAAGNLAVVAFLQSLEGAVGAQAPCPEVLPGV
Nature of the series: Nessler ammonia assay, steady-state inhibition kinetics. Format: biochemical.

The target of series [2] is T1, GST-ASPG (human ASPG, 60 kDa Lysophospholipase). Briefly: PAF acetylhydrolase assay kit (2-thio PAF, DTNB, […] nm). The settings on record: 200 µM 2-thio-PAF, Tris/HCl pH 7.2, 10 min pre-incubation. The format is biochemical.
Substrate in series [3]: NC(=O)C[C@H](N)C(=O)O
Briefly: Nessler ammonia assay, Hill fit. The format is biochemical, Homo sapiens. The note with it: Tris/HCl pH 8.6, 37 °C, 30 min, 3-39 mM substrate, sigmoidal kinetics, Hill slope 6.9.

By Ki is commonly meant the dissociation constant of the complex between target and ligand, obtained from inhibition or displacement. For the molecule `NC(=O)C[C@@H](N)C(=O)O` [D-asparagine], the affinity in series [1], expressed as Ki, was 71 mM. The “residual PAF-AH activity at 40 and 200 mM” value in series [2] is “PAF-AH activity of GST-ASPG was also significantly inhibited by D-asparagine”.

B1: GST-ASPG (human ASPG, 60 kDa Lysophospholipase) (Homo sapiens) (protein)
chain: T1 sequence (Q86U10 1-573)
notes: full-length cDNA in pGEX-4T3, N-terminal GST tag kept, E. coli BL21, glutathione Sepharose
As for B1, the K0.5 in series [3] is reported as 13 mM.
